The record followed here is US20250302845A1, “SELECTIVE DOPAMINE INCREASE” (SOBRERA PHARMA AB, priority 2022, published 2025).

Entries after “also recorded” stand apart in the source; their conditions may differ.

What all share (parameters): species or system Wistar Han rat
Experiment [1] has as its system dopamine (DA) in the nucleus accumbens (nAc). Briefly: In vivo microdialysis of dopamine in nucleus accumbens (Example 1). Conditions: for DA effect nAc vs DMS (brain region comparison over time): dual probe, Org 24598 9 mg/kg, varenicline 1.5 mg/kg. Here is the method: (§1) 95 adult male Wistar Han rats (Envigo, Horst, Netherlands) were used in all experiments, weighing 280 to 350 g at the time of surgery (corresponding to approximately 9-10 weeks of age). The animals were housed in groups of five per cage (55×35×20 cm) at constant room temperature (22° C.), relative humidity (65%), and regular dark-light conditions (lights on at 7 AM and off at 7 PM). […] The animals were allowed to acclimate to the animal facilities for at least one week before surgery. This study was approved by the Ethics Committee for Animal Experiments, Gothenburg, Sweden and conducted according to national laws and guidelines for the care and use of laboratory animals.
(§2) Nicotine ((−)-nicotine hydrogen tartrate salt, Sigma, Stockholm, Sweden), 95% ethanol (Kemetyl AB, Stockholm, Sweden), varenicline (6,7,8,9-tetrahydro-6,10-methano-6H-pyrazino[2,3-h][3]benzazepine tartrate; provided by Pfizer Global Research and Development) and N-methyl-N-[(3R)-3-phenyl-3-[4-(trifluoromethyl) phenoxy]propyl]-glycine (Org 24598) (Tocris, Bristol, United Kingdom) were dissolved in physiological saline solution (0.9% NaCl) and administered subcutaneous (nicotine and varenicline) or intraperitoneal (ethanol and Org 24598) at a volume of 2 ml/kg (nicotine and varenicline), 5 ml/kg for EtOH and 4 ml/kg for Org 24598. The pH of the nicotine solution was neutralized with bicarbonate to approximately 7.2-7.4.
(§3) The microdialysis experiments were performed as previously described (Clarke, et al., 2014, Increase in nucleus accumbens dopamine levels following local ethanol administration is not mediated by acetaldehyde, Alcohol Alcohol 49, 498-504; Danielsson et al., 2021, Differential dopamine release by psychosis-generating and non-psychosis-generating addictive substances in the nucleus accumbens and dorsomedial striatum, Transl Psychiatry 11, 472). Animals were anaesthetized with isoflurane before being mounted into a stereotaxic instrument (David Kopf Instruments, AgnTho's, Stockholm, Sweden). The animals were equipped with either a standard in-house made single probe placed in the nAc (A/P +1.85, M/L −1.2, D/V −7.8) or the DMS (A/P+1.2, M/L −1.4, D/V −5.5) (Paxinos, 2007, The rat brain in stereotaxic coordinates. Amsterdam u.a.: Elsevier, Academic Press, Amsterdam), or a custom-made dual microdialysis probe (FIG. 1), which permits simultaneous sampling from both the nAc and DMS. Two additional holes were drilled in the skull in order to allow anchoring screws to be fastened, and the probe and screws were set in place using Harvard cement (DAB Dental AB, Stockholm, Sweden). The animals were then placed in single housing cages and allowed to recover for 48 h prior to the microdialysis experiment.
On the day of the experiment, the animals were connected to a microperfusion pump (U-864 Syringe Pump, AgnTho's, Sweden) via a swivel, which allowed the animals to move around the cage freely. During the entire experiment, the probes were perfused with Ringer solution at a rate of 2 μl/min, and dialysate samples were collected every 20 min. Baseline sampling commenced after a 2-hour period, during which a balanced fluid exchange was established. Once at least three consecutive stable DA values were obtained (±10%), pharmacological treatment was administered, followed by a total of 180 minutes of sampling.
(§4) Microdialysis samples were analyzed as previously described for DA (Clarke, et al., 2014, Increase in nucleus accumbens dopamine levels following local ethanol administration is not mediated by acetaldehyde, Alcohol Alcohol 49, 498-504). In brief, DA content was analyzed using high performance liquid chromatography (HPLC) with electrochemical detection, using an external standard containing 3.25 fmol/μl of DA to identify DA peaks and quantify DA content. The chromatograms were analyzed using the software Thermo Scientific Chromelion Chromatography System (CDS) Chromelion 7.

Experiment [2] deals with dopamine (DA) in the dorsomedial striatum (DMS). Briefly: In vivo microdialysis of dopamine in dorsomedial striatum (Example 1). How it is done: as §1, §2, §3
On the day of the experiment, the animals were connected to a microperfusion pump (U-864 Syringe Pump, AgnTho's, Sweden) via a swivel, which allowed the animals to move around the cage freely. […]
as §4

Experiment [3] has as its system dopamine (DA) in the nucleus accumbens (nAc). Briefly: In vivo microdialysis of dopamine in nucleus accumbens (Example 2). How it is done: (§5) Adult male Wistar Han rats (Envigo, Horst, Netherlands) were used, weighing approximately 320 g at the time of surgery (corresponding to approximately 9-10 weeks of age). The animals were housed in groups of five per cage (55×35×20 cm) at constant room temperature (22° C.), relative humidity (65%), and regular dark-light conditions (lights on at 7 AM and off at 7 PM). All animals had ad libitum access to standard rat feed (Harlan Teklad, Envigo, Europe) and tap water. The animals were allowed to acclimate to the animal facilities for at least one week before surgery. This study was approved by the Ethics Committee for Animal Experiments, Gothenburg, Sweden and conducted according to national laws and guidelines for the care and use of laboratory animals.
(§6) The microdialysis experiments were performed as previously described (Clarke et al., 2014; Danielsson et al., 2021). […]
(§7) Microdialysis samples were analyzed as previously described for DA (Clarke et al., 2014). In brief, DA content was analyzed using high performance liquid chromatography (HPLC) with electrochemical detection, using an external standard containing 3.25 fmol/μl of DA to identify DA peaks and quantify DA content. The chromatograms were analyzed using the software Thermo Scientific Chromelion Chromatography System (CDS) Chromelion 7.

Experiment [4] concerns dopamine (DA) in the dorsomedial striatum (DMS). Briefly: In vivo microdialysis of dopamine in dorsomedial striatum (Example 2). Conditions: 12 mg/kg i.p., dual probe, same Wistar rat, FIG. 5. Here is the method:
as §5, §6, §7

Where [5] appears, read: dual probe microdialysis, 0-180 min, Org 24598 9 mg/kg intraperitoneal, varenicline 1.5 mg/kg subcutaneous, alone or combined.
Setting [6] is: two-way ANOVA, 0-180 min, alone or combined.
[7] abbreviates: single probe microdialysis, t=0-180 min, EtOH 2.5 g/kg intraperitoneal, nicotine 0.36 mg/kg subcutaneous, alone or combined.
Setting [8] is: single probe microdialysis, t=0-180 min, EtOH 2.5 g/kg intraperitoneal, nicotine 0.36 mg/kg subcutaneous, alone or combined, listed as ethanol.

With `CN(CC[C@@H](Oc1ccc(C(F)(F)F)cc1)c1ccccc1)CC(=O)O` [Org 24598, N-methyl-N-[(3R)-3-phenyl-3-[4-(trifluoromethyl)phenoxy]propyl]-glycine], the “effect on nAc DA vs vehicle (AUC)” value in experiment [1] (setting [5]) is on record as “no significant effect; also recorded: minor DA increase”. The “DA effect nAc vs DMS (brain region comparison over time)” value in experiment [1] (setting [6]) is on record as “did not differ between the two areas”. In addition, in experiment [2] (setting [5]), the “effect on DMS DA vs vehicle (AUC)” value was “minor DA increase”.

Take `CN1CCCC1c1cccnc1.O=C(O)C(O)C(O)C(=O)O` (single isomer, unassigned; (-)) [nicotine, (−)-nicotine hydrogen tartrate salt]: in experiment [1] (rat, in vivo), the “DA elevation nAc vs DMS (brain region comparison over time)” value is “no effect by brain region on the DA elevation”; the “effect on nAc DA vs vehicle (AUC)” value is “significant and substantial increase in accumbal DA”. Further, the “effect on DMS DA vs vehicle (AUC)” value in experiment [2] (rat, in vivo) is “elevated DA significantly”.

In the case of `COc1cc(C(=O)NCC2(N(C)C)CCCC2)cc(OC)c1OCc1ccccc1.Cl` [Org 25543], in experiment [3] (12 mg/kg i.p., dual probe, same Wistar rat, FIG. 5), the “effect on dopamine levels in nAc” value is recorded as “increase in dopamine levels in nAc”. In addition, the “effect on dopamine in the nAc” value in experiment [3] (4 or 8 mg/kg i.p., systemic administration, FIG. 4) is “dose-dependent increase of dopamine in the nAc”. The “effect on dopamine levels in DMS” value in experiment [4] is “reduction in dopamine levels in DMS”.

As to `c1cnc2cc3c(cc2n1)[C@@H]1CNC[C@H]3C1` [varenicline, 7,8,9,10-tetrahydro-6,10-methano-6H-pyrazino[2,3-h][3]benzazepine], the “DA effect nAc vs DMS (brain region comparison over time)” value in experiment [1] (setting [6]) is listed as “did also not differ between brain regions”. For the same compound, the “effect on DMS DA vs vehicle (AUC)” value in experiment [2] (setting [5]) is “small but significant elevation of DA over time”.

`CCO` [EtOH, ethanol]: the “effect on nAc DA vs vehicle (AUC)” value in experiment [1] (setting [7]) was “transient increase in DA”; in experiment [1] (setting [8]) it was “not statistically significant”. The “DA elevation nAc vs DMS (brain region comparison over time)” value in experiment [1] (two-way ANOVA, t=0-180 min, EtOH 2.5 g/kg, nicotine 0.36 mg/kg, alone or combined) is “did not produce statistically different DA elevations in the nAc and the DMS”. Also, the “effect on DMS DA vs vehicle (AUC)” value is on record as “significantly increased DA over time” in experiment [2] (setting [7]) and “elevated DA significantly” in experiment [2] (setting [8]).
